Measurements: US11535621B2, “Heterobicyclic amides as inhibitors of CD38” (Ribon Therapeutics, Inc., priority 2019, dated 2022)

What was measured:
Human CD38 = Human CD38 (Homo sapiens (Human), UniProt P28907); experiment: CD38 enzyme assay; format: biochemical; conditions: 2 nM CD38, NAD+ substrate, absorbance at 405 nm
How it was run: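 IC50 values come from fitting % inhibition against compound concentration with a 4-parameter logistic, or a 3-parameter fit with top/bottom fixed at 100/0 or Hill at 1. Inhibition is scaled between DMSO wells and positive-control wells treated with a quinolinone CD38 inhibitor.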

B16-F10 tumor = experiment: Efficacy study in a B16F10 model (survival); format: in vivo, C57BL/6 mouse; conditions: Example 7 300 mg/kg p.o. QD in combination with anti-mPD-L1 10 mg/kg i.p. QW; over vehicle or anti-mPD-L1 treated mice; p value <0.0001
Experimental: B16-F10 tumor cells (ATCC, Cat #CRL-6475) were maintained in vitro as a monolayer culture in DMEM medium (Gibco, Cat #11995-040) supplemented with 10% heat inactivated fetal bovine serum (Biological Industries, Cat #04-002-1A), 100 U/mL penicillin and 100 µg/mL streptomycin (Hyclone, Cat #SV30010) at 37° C. in an atmosphere of 5% CO2 in air. The tumor cells were routinely subcultured twice weekly by trypsin-EDTA (Gibco, Cat #25200-072) treatment. The cells growing to a confluency around 70%-80% were harvested and counted for tumor inoculation. The cultured B16-F10 cells were harvested, re-suspended in base medium at a density of 2×10^7 cells/mL with viability>90%. 6-8 weeks of Female C57BL/6 mouse (Shanghai LingChang Biotech Co., LTD) was inoculated subcutaneously at the right flank with 1×10^6 in 0.05 mL base medium for tumor development. Tumors were calipered in two dimensions to monitor growth as the mean volume approached the desired range. Tumor volume (TV) was calculated using the formula: TV=0.5 a×b2 where a and b are the long and short diameters of the tumor.
Mice were assigned into 4 groups with 12 mice per group. […] The tumor sizes were measured three times per week during the treatment. Survival was monitored with tumor volume exceeding 2000 mm3 as endpoint. […]

Chain of Human CD38 (P28907 whole entry): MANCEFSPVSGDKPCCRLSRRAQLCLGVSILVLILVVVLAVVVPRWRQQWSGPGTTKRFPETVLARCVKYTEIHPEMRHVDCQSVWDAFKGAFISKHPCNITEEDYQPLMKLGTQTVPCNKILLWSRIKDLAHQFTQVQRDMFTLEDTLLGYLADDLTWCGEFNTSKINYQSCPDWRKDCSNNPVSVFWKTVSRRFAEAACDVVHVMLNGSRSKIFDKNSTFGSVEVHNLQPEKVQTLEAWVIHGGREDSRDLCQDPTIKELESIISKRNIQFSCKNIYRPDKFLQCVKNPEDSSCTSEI

IC50 (Human CD38)	SMILES	percent survival of B16-F10 tumor bearing mice (B16-F10 tumor)
100 to 1000 nM	COCCO[C@H]1CC[C@H](NC(=O)c2cc(-n3ccnc3)cc3cnsc23)CC1 [Example 41, 5-(1H-Imidazol-1-yl)-N-((1r,4r)-4-(2-methoxyethoxy)cyclohexyl)benzo[d]isothiazole-7-carboxamide]	
< 10 nM	CO[C@H]1CC[C@H](NC(=O)c2nc(-n3ccnc3)nc3cn[nH]c23)CC1 [Example 183]	
10 to 100 nM	O=C(N[C@H]1CC[C@H](NCC(F)F)CC1)c1nc(-n2ccnc2)cc2cn[nH]c12 [Example 195, N-((1r,4r)-4-((2,2-difluoroethyl)amino)cyclohexyl)-5-(1H-imidazol-1-yl)-1H-pyrazolo[3,4-c]pyridine-7-carboxamide]	

SMILES	IC50 (Human CD38)	percent survival of B16-F10 tumor bearing mice (B16-F10 tumor)
COCCO[C@H]1CC[C@H](NC(=O)c2nc(-n3ccnc3)nc3cc[nH]c23)CC1 [Example 7, 2-(1H-Imidazol-1-yl)-N-((1r,4r)-4-(2-methoxyethoxy)cyclohexyl)-5H-pyrrolo[3,2-d]pyrimidine-4-carboxamide]	10 to 100 nM	significant survival benefit
